Assay results published in patent US20240294523A1, “HETEROCYCLIC LACTAM COMPOUND, AND PREPARATION METHOD THEREFOR AND PHARMACEUTICAL USE THEREOF” (Genfleet Therapeutics (Shanghai) Inc., priority 2021, published 2024).

Key:
U937 cells = test: Inhibition of TNF-α-induced programmed necrosis of U937 cells (CellTiter-Glo); format: cell-based; settings: U-937, human TNF-α + Q-VD-Oph, 48 hours
Procedure: The U937 cell line used in the following test examples was from ATCC, number: CRL-1593.2, batch number: 63479999, culture medium: RPMI-1640+10% FBS.
(§1) The reagents used, suppliers and product numbers of the reagents were as follows: RPMI-1640, Gibco, 11875-093; FBS, Gibco, 10099-141; Trypsin-EDTA, Gibco, 25200-072; PS, Gibco, 15140-122; CellTiter Glo , Progema, G7573; DMSO, VWR AMRESCO, 0231-500ML; TNF-α protein (human, recombinant), Peprotech, 300-01A; Q-VD-Oph, MCE, HY-12305; V-shaped bottom plate, Corning, 3894; 384-well low-flange white flat-bottom microplate, Corning, 3570; RIPK1, Eurofins, 16-022; MOPS, BDH, 441644J; EDTA, Sigma, E5134; Myelin basic protein, Sigma, M1891-25.00 MG; Magnesium acetate, Merck, DU008026; ATP (non-radioactive label), Sigma, A-7699; ATP (radioactive label), Hartmann Analytic, DU008054; Phosphoric acid, Metlab, DU003000; Z-VAD: Shanghai Yuang Chemical Industry, YA02401.
The compounds to be tested were dissolved in DMSO and diluted with DMSO into a series of concentration gradients. 5000 U937 cells/well were seeded in a 384-well white plate. Compounds of corresponding concentrations were added to each well and mixed evenly with the cells. At the same time, human TNF-a and Q-VD-Oph were added to induce programmed necrosis of the cells. The cells were placed at 37° C., 5% CO2 incubator for 48 hours. CellTiter-Glo reagent was used for detection, and the chemiluminescence reading was detected using a microplate reader after sufficient lysis reaction. The test results were calculated using the formula SR (%)=(RLU compound−RLU blank)/(RLU high control−RLU blank)×100%. The survival rate and the final concentration of the corresponding compound were drawn into a curve and fitted using four parameters. Inhibitory IC50 on TNF-α-induced cell necrosis of the compounds were calculated.

L929 cells = test: Inhibition of TNF-α-induced programmed necrosis of L929 cells (CellTiter-Glo); format: cell-based; settings: 30 ng/ml mouse TNF-α + 15 μM Z-VAD, 6 hours
Procedure: The L929 cell line used in the following test examples was from ATCC, number: CCL-1, batch number: 70001022, culture medium: MEM+10% FBS+1% PS.
as §1
The compounds to be tested were dissolved in DMSO to prepare a 10 mM stock solution, and diluted 3.16 times with DMSO into a series of concentration gradients, and then dilute 100 times to prepare a working solution. 10000 L929 cells/well were seeded in a 384-well white plate. Compounds of corresponding concentrations were added to each well and mixed evenly with the cells. At the same time, 30 ng/ml mouse TNF-α and 15 μM Z-VAD were added to induce programmed necrosis of the cells, the final concentration of DMSO was 0.2%. The cells were placed at 37° C., 5% CO2 incubator for 6 hours. CellTiter-Glo reagent was used for detection, and the chemiluminescence reading was detected using a microplate reader after sufficient lysis reaction. The test results were calculated using the formula SR (%)=(RLU compound−RLU blank)/(RLU high control−RLU blank)×100%. The survival rate and the final concentration of the corresponding compound were drawn into a curve and fitted using four parameters. Inhibitory IC50 on TNF-α-induced cell necrosis of the compounds were calculated.

RIPK1 = RIPK1 (Homo sapiens (Human), UniProt Q13546); test: Inhibitory activity against RIPK1 enzyme (33P-ATP, MBP substrate); format: biochemical; settings: 36 nM RIPK1, 0.33 mg/ml MBP, 155 μM ATP, 2 hours, room temperature
Procedure: as §1
The compound to be tested was dissolved in DMSO to prepare a 10 mM stock solution, diluted 3.16 times with DMSO into a series of concentration gradients, and then MOPS pH 7.0 buffer solution was used to dilute 50 times to prepare a working solution, and mixed well with 36 nM RIPK1 (final concentration), 0.33 mg/ml substrate MBP. Afterwards, 10 mM magnesium ions and 155 μM phosphorus 33 isotope-labeled ATP were added to react, The final concentration of DMSO was 2%. After the reaction was proceeded at room temperature for 2 hours, phosphoric acid was added to terminate. The final reaction system was processed and detected using a liquid scintillation counter. After the test results are subtracted from the blank control and compared with the reading value of the control group to convert to the activity percentage, which was plotted as a curve with the final concentration of the corresponding compound, and four-parameter fitting was used to obtain the IC50 of the compound that inhibits RIPK1 enzyme activity.

Chain of RIPK1 (Q13546 whole entry): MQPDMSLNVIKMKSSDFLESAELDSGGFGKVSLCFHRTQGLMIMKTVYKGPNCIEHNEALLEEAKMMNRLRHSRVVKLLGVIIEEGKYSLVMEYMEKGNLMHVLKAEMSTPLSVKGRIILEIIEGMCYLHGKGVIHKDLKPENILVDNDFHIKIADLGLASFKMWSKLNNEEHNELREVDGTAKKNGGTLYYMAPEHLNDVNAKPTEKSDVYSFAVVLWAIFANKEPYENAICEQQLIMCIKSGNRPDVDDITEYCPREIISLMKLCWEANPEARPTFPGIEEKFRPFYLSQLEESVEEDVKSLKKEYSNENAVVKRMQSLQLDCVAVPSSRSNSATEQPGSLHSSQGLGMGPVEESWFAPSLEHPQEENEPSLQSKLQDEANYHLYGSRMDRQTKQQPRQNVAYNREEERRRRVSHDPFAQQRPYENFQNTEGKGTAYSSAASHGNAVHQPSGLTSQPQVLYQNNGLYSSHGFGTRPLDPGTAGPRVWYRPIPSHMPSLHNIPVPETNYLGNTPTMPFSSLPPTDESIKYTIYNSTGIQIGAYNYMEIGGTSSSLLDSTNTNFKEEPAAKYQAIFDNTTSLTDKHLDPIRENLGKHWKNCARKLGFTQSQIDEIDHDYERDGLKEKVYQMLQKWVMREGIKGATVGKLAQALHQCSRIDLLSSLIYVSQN

Row | SMILES | IC50 (U937 cells) [nM] | IC50 (L929 cells) [nM] | IC50 (RIPK1) [nM]
1 | CC(C(F)F)N1CCc2c(nn(Cc3c(F)cccc3F)c2Cl)C1=O (stereo not drawn) [Compound Z9, 3-chloro-2-(2,6-difluorobenzyl)-6-(1,1-difluoropropan-2-yl)-2,4,5,6-tetrahydro-7H-pyrazolo[3,4-c]pyridin-7-one] | 57.1 | 600 | –
2 | C[C@@H](C(F)F)N1CCc2c(nn(Cc3c(F)cccc3F)c2Br)C1=O (single isomer, unassigned) [Compound Z24-2] | 29.7 | 348 | –
3 | C[C@H](C(F)F)N1CCc2c(nn(Cc3c(F)cccc3F)c2Cl)C1=O (single isomer, unassigned) [Compound Z9-2] | 42.8 | 450 | 89
4 | O=C1c2nn(Cc3ccccc3F)c(Cl)c2CCN1CC(F)F [Compound Z2, 3-chloro-6-(2,2-difluoroethyl)-2-(2-fluorobenzyl)-2,4,5,6-tetrahydro-7H-pyrazolo[3,4-c]pyridin-7-one] | 279 | – | 30
